Values of other authors, collected in US20090142428A1, “Extracts from the Bark of Corynanthe Species and Use Thereof as Well as Medicaments, Dietetic Food Products and Pharmaceutical Preparations Containing Said Extracts” (DR. WILLMAR SCHWABE GMBH & CO. KG, priority 2005, published 2009).

Tested on: 5-α-reductase
Conditions: uptake of finasteride

CC(C)(C)NC(=O)[C@H]1CC[C@H]2[C@@H]3CC[C@H]4NC(=O)C=C[C@]4(C)[C@H]3CC[C@]12C [finasteride]
reduction of the prostatic DHT concentration: up to 85%
average reduction of the prostate size (period of up to 12 months): about 20%
